# In publication PMC7529893, “Structural basis for substrate recognition and chemical inhibition of oncogenic MAGE ubiquitin ligases” (Nature Communications, 2020):
# Biological target: T1, MAGE-A11:PCF11 interaction (GST-MAGE-A11 and FAM-PCF11_4) (Homo sapiens, UniProt P43364)
# T1 construct: GST-MAGE-A11 MHD (human MAGE-A11 MHD amino acid 218-429); made in house; host or cells: E. coli BL21(DE3)
# T1 sequence (P43364 218-429): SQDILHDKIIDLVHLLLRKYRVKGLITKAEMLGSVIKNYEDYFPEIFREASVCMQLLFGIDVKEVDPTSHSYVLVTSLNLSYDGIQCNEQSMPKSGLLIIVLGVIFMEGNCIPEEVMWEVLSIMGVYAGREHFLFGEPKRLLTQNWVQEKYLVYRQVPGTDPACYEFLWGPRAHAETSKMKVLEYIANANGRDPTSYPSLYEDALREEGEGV
# Assay: TR-FRET primary / single point screen at 15 µM
# Format: binding
# Conditions: single point TR-FRET screening of 797 quinoline compounds against MAGE-A11:PCF11
# Outline: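 TR-FRET 520/490 nm emission ratio was read after 90 min at room temperature. Wells held 5 nM GST-MAGE-A11, 5 nM Tb-anti-GST, 200 nM FAM-PCF11_4 and 15 µM compound in Tris pH 7.5 buffer with MgCl2, BSA and DTT. %Inhibition was scaled to DMSO and minus-MAGE-A11 controls.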
row,SMILES,percent inhibition (TR-FRET)
1,COC(=O)CCCCCN(CCCCNc1ccnc2cc(Cl)ccc12)Cc1ccccc1 [SJ000520432],23.5757
2,Clc1ccc2c(NCCCCN(Cc3ccccc3)Cc3ccc4[nH]ccc4c3)ccnc2c1 [SJ000520434],69.4381
3,Cn1ccnc1CN(CCCCNc1ccnc2cc(Cl)ccc12)Cc1ccccc1 [SJ000520435],5.888
4,Clc1ccc2c(NCCCCN(Cc3ccccc3)Cc3cccc4c3OCO4)ccnc2c1 [SJ000520436],21.6545
5,COc1ccc(CN(CCCCNc2ccnc3cc(Cl)ccc23)Cc2ccccc2)cc1F [SJ000520438],13.1455
6,Cn1cc(CN(CCCCNc2ccnc3cc(Cl)ccc23)Cc2ccccc2)c2ccccc21 [SJ000520440],-14.3502
7,COc1ccc(F)c(CN(CCCCNc2ccnc3cc(Cl)ccc23)Cc2ccccc2)c1 [SJ000520441],14.5458
8,CCc1ccc(CN(CCCCNc2ccnc3cc(Cl)ccc23)Cc2ccccc2)cc1 [SJ000520443],29.9089
9,COc1ccc(C(F)(F)F)cc1CN(CCCCNc1ccnc2cc(Cl)ccc12)Cc1ccccc1 [SJ000520444],31.8155
10,Clc1ccc2c(NCCCCN(Cc3ccccc3)Cc3csc4ccccc34)ccnc2c1 [SJ000520446],33.9765
11,COc1ccc(OC(F)(F)F)cc1CN(CCCCNc1ccnc2cc(Cl)ccc12)Cc1ccccc1 [SJ000520447],26.6585
12,Clc1ccc2c(NCCCCN(Cc3ccccc3)Cc3nccs3)ccnc2c1 [SJ000520448],-1.698
13,Cc1ccc(F)cc1CN(CCCCNc1ccnc2cc(Cl)ccc12)Cc1ccccc1 [SJ000520449],42.3236
14,FC(F)(F)Oc1ccc(CN(CCCCNc2ccnc3cc(Cl)ccc23)Cc2ccccc2)cc1 [SJ000520451],39.8725
15,Clc1ccc2c(NCCCCN(Cc3ccccc3)Cc3cccnc3Br)ccnc2c1 [SJ000520453],2.377
16,FC(F)(F)c1cccc(CN(CCCCNc2ccnc3cc(Cl)ccc23)Cc2ccccc2)c1 [SJ000520455],26.3784
17,Cc1csc(CN(CCCCNc2ccnc3cc(Cl)ccc23)Cc2ccccc2)n1 [SJ000520456],-12.8602
18,FC(F)(F)Oc1cccc(CN(CCCCNc2ccnc3cc(Cl)ccc23)Cc2ccccc2)c1 [SJ000520457],33.314
19,FC(F)(F)Oc1ccccc1CN(CCCCNc1ccnc2cc(Cl)ccc12)Cc1ccccc1 [SJ000520459],30.8594
20,Fc1cccc(C(F)(F)F)c1CN(CCCCNc1ccnc2cc(Cl)ccc12)Cc1ccccc1 [SJ000520465],28.7514
21,FC(F)(F)c1cc(CN(CCCCNc2ccnc3cc(Cl)ccc23)Cc2ccccc2)ccc1Cl [SJ000520466],25.2787
22,COc1ccc2nc3cc(Cl)ccc3c(NCCCNCc3ccc4[nH]ccc4c3)c2c1 [SJ000520914],-184.229
23,COc1ccc2nc3cc(Cl)ccc3c(NCCCNCc3c(F)cccc3OC)c2c1 [SJ000520915],-298.775
24,COc1ccc2nc3cc(Cl)ccc3c(NCCCNCc3ccoc3)c2c1 [SJ000520916],-299.405
25,CCCN(CCC)CCCNc1c2ccc(Cl)cc2nc2ccc(OC)cc12 [SJ000520917],-288.202

# Same assay, conditions: single point TR-FRET screening of quinoline compounds against MAGE-A11:PCF11; 15 µM
row,SMILES,percent inhibition (TR-FRET)
1,Clc1ccc2c(NCCCN(Cc3ccccc3)Cc3ccc4[nH]ccc4c3)ccnc2c1 [SJ000520430],66.4274
2,Cn1ccnc1CN(CCCNc1ccnc2cc(Cl)ccc12)Cc1ccccc1 [SJ000520431],15.361
3,Clc1ccc2c(NCCCN(Cc3ccccc3)Cc3c[nH]c4ccccc34)ccnc2c1 [SJ000520433],40.1907
4,COc1ccc(CN(CCCNc2ccnc3cc(Cl)ccc23)Cc2ccccc2)cc1F [SJ000520437],23.6478
5,Cn1cc(CN(CCCNc2ccnc3cc(Cl)ccc23)Cc2ccccc2)c2ccccc21 [SJ000520439],-9.311
6,CCc1ccc(CN(CCCNc2ccnc3cc(Cl)ccc23)Cc2ccccc2)cc1 [SJ000520442],18.8867
7,COc1ccc(F)c(CN(CCCNc2ccnc3cc(Cl)ccc23)Cc2ccccc2)c1 [SJ000520445],4.762
8,COc1ccc(C(F)(F)F)cc1CN(CCCNc1ccnc2cc(Cl)ccc12)Cc1ccccc1 [SJ000520450],23.1782
9,COc1ccc(OC(F)(F)F)cc1CN(CCCNc1ccnc2cc(Cl)ccc12)Cc1ccccc1 [SJ000520452],20.4443
10,Clc1ccc2c(NCCCN(Cc3ccccc3)Cc3csc4ccccc34)ccnc2c1 [SJ000520454],28.1386
11,Cc1ccc(F)cc1CN(CCCNc1ccnc2cc(Cl)ccc12)Cc1ccccc1 [SJ000520458],29.7727
12,FC(F)(F)Oc1ccc(CN(CCCNc2ccnc3cc(Cl)ccc23)Cc2ccccc2)cc1 [SJ000520460],25.0481
13,Clc1ccc2c(NCCCN(Cc3ccccc3)Cc3cc4ccccc4o3)ccnc2c1 [SJ000520461],5.6
14,Clc1ccc2c(NCCCN(Cc3ccccc3)Cc3cccnc3Br)ccnc2c1 [SJ000520462],9.715
15,Cc1csc(CN(CCCNc2ccnc3cc(Cl)ccc23)Cc2ccccc2)n1 [SJ000520463],-10.469
16,FC(F)(F)Oc1cccc(CN(CCCNc2ccnc3cc(Cl)ccc23)Cc2ccccc2)c1 [SJ000520464],27.7788
17,Fc1cccc(C(F)(F)F)c1CN(CCCNc1ccnc2cc(Cl)ccc12)Cc1ccccc1 [SJ000520467],22.0104
18,CCCN(CCCNc1ccnc2cc(C(F)(F)F)ccc12)Cc1c[nH]c2ccccc12 [SJ000520468],16.1561
19,CCCN(CCCNc1ccnc2cc(C(F)(F)F)ccc12)Cc1cn(C)c2ccccc12 [SJ000520469],25.5382

row,SMILES,percent inhibition (TR-FRET)
1,CCCN(CCCNc1ccnc2cc(C(F)(F)F)ccc12)Cc1ccccc1OC(F)(F)F [SJ000520470],5.934
2,CCCN(CCCNc1ccnc2cc(C(F)(F)F)ccc12)Cc1cccc(C(F)(F)F)c1 [SJ000520471],13.0224
3,CCCN(CCCNc1ccnc2cc(C(F)(F)F)ccc12)Cc1cccc2c1OCO2 [SJ000520472],14.6158
4,CCCN(CCCNc1ccnc2cc(C(F)(F)F)ccc12)Cc1cccc(OC(F)(F)F)c1 [SJ000520473],9.085
5,CCCN(CCCNc1ccnc2cc(C(F)(F)F)ccc12)Cc1ccc(OC(F)(F)F)cc1 [SJ000520474],17.3802
6,CCCN(CCCNc1ccnc2cc(C(F)(F)F)ccc12)Cc1cc(F)ccc1OC [SJ000520475],15.746
7,CCCN(CCCNc1ccnc2cc(C(F)(F)F)ccc12)CCC(C)(C)C [SJ000520476],32.3298
8,CCCCN(CCC)CCCNc1ccnc2cc(C(F)(F)F)ccc12 [SJ000520477],23.5778
9,CCCN(CCCNc1ccnc2cc(C(F)(F)F)ccc12)Cc1cc(Br)cs1 [SJ000520478],-9.243
10,CCCN(CCCNc1ccnc2cc(C(F)(F)F)ccc12)Cc1cc2ccccc2o1 [SJ000520479],-20.4102
11,CCCN(CCCNc1ccnc2cc(C(F)(F)F)ccc12)Cc1cc(OC)ccc1F [SJ000520480],11.9552
12,CCCN(CCCNc1ccnc2cc(C(F)(F)F)ccc12)Cc1c(F)cccc1C(F)(F)F [SJ000520481],11.4651
13,CCCN(CCCNc1ccnc2cc(C(F)(F)F)ccc12)Cc1cc2ccccc2s1 [SJ000520482],13.0054
14,CCCN(CCCNc1ccnc2cc(C(F)(F)F)ccc12)Cc1csc2ccccc12 [SJ000520483],19.4469
15,CCCN(CCCNc1ccnc2cc(C(F)(F)F)ccc12)Cc1nc2ccccc2s1 [SJ000520484],7.404
16,CCCN(CCCNc1ccnc2cc(C(F)(F)F)ccc12)Cc1cc(OC(F)(F)F)ccc1OC [SJ000520485],5.6
17,CCCN(CCCNc1ccnc2cc(C(F)(F)F)ccc12)Cc1cc(C(F)(F)F)ccc1OC [SJ000520486],8.188
18,O=[N+]([O-])c1ccc(CNCCCNc2ccnc3cc(Cl)ccc23)s1 [SJ000520912],6.284
19,Clc1ccc2c(NCCCNCc3ccoc3)ccnc2c1 [SJ000520913],-11.15
